Measurements as given in US20140329863A1 (priority 2011, published 2014).

Legend:
[1] = system: MDCK-MDR^1 cells (P-glycoprotein); test: Bidirectional MDCK-MDR1 cell permeability; assay type: in vitro ADME, canine
Experimental: MDCK-MDR^1 cells were grown to confluence for 5-10 days on 1-μm filters in 24-well plates {Hilgers, 1990}. Aliquots of DMSO stocks were diluted into Hank's balanced salt solution (HBSS), pH 7.4, containing […] to give 10-μM solute concentration. The solute containing donor solutions were transferred to either the apical or basolateral chamber of the permeability diffusion apparatus. Receiver solutions consisted of HBSS (pH 7.4) containing 25 mM HEPES+0.05% PS80. Sequential samples of transported solute were taken at 20-min intervals using an automated liquid handling platform. The concentration of transported solute during each sampling interval was determined by HPLC/UV/MS. Permeability coefficients were calculated for each sampling interval. The average and standard deviation from the intervals are reported. Mass balance in the system was ascertained by comparing the sum of total transported solute and remaining donor solute with the starting mass of solute and is expressed as a percentage of donor solute at time zero. […] In the event of mass balance less than 70%, the cell monolayers were extracted with ACN and analyzed for the solute of interest. Determinations were conducted in duplicate.

[2] = Metabolite identification in human, mouse, rat and dog liver microsomes; assay type: in vitro ADME
Experimental: Samples were injected onto a BetaBasic C18 column and eluted with a gradient elution of mobile phase B (0.1% formic acid in ACN) from 5% to 95% over 30 min. For IND24-containing samples, the transitions monitored were 344→226 (parent); 360→226 and 360→242 (monohydroxylation); and 376→242 and 376→258 (dihydroxylation). […] Plasma and brain homogenate samples from FVB mice in single-dose (10 mg/kg) pharmacokinetic studies were similarly scanned to detect potential hydroxylated metabolites.
Metabolites were separated on a Kinetex 100-Å column (2.6 μm, 100×2.1 mm, Phenomenex, Torrance, Calif.) at ambient temperature. […]
The Orbitrap mass analyzer was calibrated according to the manufacturer's directions using a mixture of caffeine, Met-Arg-Phe-Ala (MRFA) peptide and Ultramark 1621. The parent compounds and their metabolites were detected by full scan mass analysis from m/z 150-1000 at a resolving power of 60,000 [at m/z 400, full width at half maximum (FWHM); 1-s acquisition] with data-dependent MS/MS analyses triggered by the most abundant ion. […] The data obtained was analyzed using Xcalibur v2.1 software (ThermoScientific; Waltham Mass.). Four-decimal monoisotopic masses of the parent compounds and their oxidative metabolites calculated using ChemBioDraw Ultra software version 11.0 (CambridgeSoft; Cambridge, Mass.) were used to interpret further the fragment ions.

[3] = Fraction unbound in cell-culture media; assay type: in vitro ADME; conditions: 1 μM; mean ± SD, n = 3
[4] = CYP phenotyping in human liver microsomes, no inhibitor (negative control, maximum metabolism); assay type: in vitro ADME
CYP2C9 = biological target: T1, CYP2C9 (Homo sapiens, UniProt P11712); test: CYP phenotyping in human liver microsomes, sulphaphenazol; assay type: in vitro ADME; conditions: for CYP Involvement: CYP2C9, NADPH + Sulphaphenazol; for % Disappearance / Measured Conc. / Δ % Disappearance: reversible incubation condition, NADPH + Sulphaphenazol
T1 construct: tissue BD Biosciences; host or cells: pooled human liver microsomes

CYP3A4 [5] = biological target: T2, CYP3A4 (Homo sapiens, UniProt P08684); test: CYP phenotyping in human liver microsomes, ketoconazole; assay type: in vitro ADME; conditions: for CYP Involvement: CYP3A4, NADPH + Ketoconazole; for % Disappearance / Measured Conc. / Δ % Disappearance: reversible incubation condition, NADPH + Ketoconazole
T2 construct: tissue BD Biosciences; host or cells: pooled human liver microsomes

CYP2C19 [6] = biological target: CYP2C19 (Homo sapiens, UniProt P33261); conditions: for CYP Involvement: CYP2C19, NADPH + N-3-B; for Δ % Disappearance: reversible incubation condition, NADPH + N-3-B
CYP2C19 [7] = conditions: reversible incubation condition, NADPH + N-3-B
in vitro = conditions: FVB, mouse, 20% brain homogenate, pH 7.4, nonbound free fraction in brain, 1 and 10 μM
Binding in human plasma = conditions: for Percentage binding, Human plasma, 1 μM / Unbound (%), Human Plasma: 1 μM; for Unbound (%), Human Plasma: mean ± SD, n = 3 (warfarin n = 2)
CYP3A4 [8] = biological target: T2, CYP3A4; test: Cytochrome P450 phenotyping in human liver microsomes, CYP3A4 (ketoconazole); assay type: in vitro ADME; conditions: HLM, 1 μM ketoconazole
Excerpt: % Disappearance=[(TC-NADPH TC+NADPH)/TC-NADPH]×100
for which TC is the test compound.

[9] = irreversible incubation condition, maximum metabolism, NADPH/No Inhibitor
[10] = irreversible incubation condition, negative control, No NADPH/No Inhibitor
[11] = reversible incubation condition, maximum metabolism, NADPH/No Inhibitor
[12] = reversible incubation condition, negative control, No NADPH/No Inhibitor

Chain of CYP2C19 (Homo sapiens, UniProt P33261) (P33261 whole entry): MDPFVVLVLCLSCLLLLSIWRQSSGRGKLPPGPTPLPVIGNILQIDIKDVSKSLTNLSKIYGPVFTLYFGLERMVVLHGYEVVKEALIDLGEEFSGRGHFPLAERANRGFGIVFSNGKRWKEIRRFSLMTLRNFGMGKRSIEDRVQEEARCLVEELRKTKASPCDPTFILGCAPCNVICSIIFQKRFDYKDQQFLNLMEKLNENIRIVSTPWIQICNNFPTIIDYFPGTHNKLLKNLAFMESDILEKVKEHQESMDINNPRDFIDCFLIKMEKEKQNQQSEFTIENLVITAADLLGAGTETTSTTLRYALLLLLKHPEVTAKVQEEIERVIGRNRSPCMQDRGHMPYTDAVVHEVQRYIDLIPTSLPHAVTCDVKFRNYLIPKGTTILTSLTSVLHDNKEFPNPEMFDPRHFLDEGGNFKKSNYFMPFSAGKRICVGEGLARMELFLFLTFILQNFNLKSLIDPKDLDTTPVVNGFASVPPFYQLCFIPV
T2 sequence (P08684 whole entry): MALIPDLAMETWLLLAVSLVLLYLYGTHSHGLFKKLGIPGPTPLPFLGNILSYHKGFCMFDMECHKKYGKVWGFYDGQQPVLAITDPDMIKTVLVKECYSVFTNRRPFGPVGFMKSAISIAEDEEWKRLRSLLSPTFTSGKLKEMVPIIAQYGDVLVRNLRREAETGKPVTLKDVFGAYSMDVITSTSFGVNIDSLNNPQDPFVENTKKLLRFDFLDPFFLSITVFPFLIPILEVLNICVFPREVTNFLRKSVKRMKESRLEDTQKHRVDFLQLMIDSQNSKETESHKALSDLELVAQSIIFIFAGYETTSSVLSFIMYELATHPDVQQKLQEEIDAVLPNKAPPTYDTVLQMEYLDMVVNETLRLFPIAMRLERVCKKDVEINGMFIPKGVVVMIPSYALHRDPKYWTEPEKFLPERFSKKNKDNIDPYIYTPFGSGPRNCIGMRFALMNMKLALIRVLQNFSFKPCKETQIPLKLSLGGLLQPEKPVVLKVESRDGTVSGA
T1 sequence (P11712 whole entry): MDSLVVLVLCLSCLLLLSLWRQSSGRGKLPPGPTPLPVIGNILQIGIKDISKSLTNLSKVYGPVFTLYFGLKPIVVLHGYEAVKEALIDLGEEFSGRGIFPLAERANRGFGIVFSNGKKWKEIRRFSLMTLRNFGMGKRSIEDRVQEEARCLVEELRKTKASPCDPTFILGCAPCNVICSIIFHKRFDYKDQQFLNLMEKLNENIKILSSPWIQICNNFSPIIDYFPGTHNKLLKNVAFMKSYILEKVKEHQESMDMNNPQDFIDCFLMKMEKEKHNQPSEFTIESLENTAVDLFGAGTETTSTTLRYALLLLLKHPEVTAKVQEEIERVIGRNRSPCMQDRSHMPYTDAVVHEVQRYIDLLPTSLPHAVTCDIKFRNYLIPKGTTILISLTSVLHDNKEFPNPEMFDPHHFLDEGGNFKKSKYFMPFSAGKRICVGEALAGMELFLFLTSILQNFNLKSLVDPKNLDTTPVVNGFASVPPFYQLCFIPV

Structure (SMILES) | P-gp substrate status, absorptive vs secretory permeability [1] | major metabolites [2] | Unbound (%), Cell-culture Media [3] | % Disappearance [4, 9] | Measured Conc. [4, 9] | Δ % Disappearance [4, 9] | Measured Conc. [4, 10] | % Disappearance [4, 11] | Measured Conc. [4, 11] | Δ % Disappearance [4, 11] | % Disappearance [4, 12] | Measured Conc. [4, 12] | CYP Involvement (CYP2C9) | % Disappearance (CYP2C9) | Measured Conc. (CYP2C9) | Δ % Disappearance (CYP2C9) | CYP Involvement (CYP3A4 [5]) | % Disappearance (CYP3A4 [5]) | Measured Conc. (CYP3A4 [5]) | Δ % Disappearance (CYP3A4 [5]) | further results
Cc1cccc(Nc2nc(-c3ccc(-c4ccccc4)cc3)cs2)n1 [IND24, (4-Biphenyl-4-yl-thiazol-2-yl)-(6-methyl-pyridin-2-yl)-amine] | not substrates | ring hydroxylation | 25.7 ± 4.93% | 0 (−18) % | 0.733 µM | 0% | 0.622 µM | 0% | 0.655 µM | 0% | 0% | 0.654 µM | Unlikely (unlikely for values <5) | 14% | 0.566 µM | 0 (−14) % | Unlikely (unlikely for values <5) | 15% | 0.557 µM | 0 (−15) % | CYP Involvement (CYP2C19 [6]): Unlikely (unlikely for values <5); Δ % Disappearance (CYP2C19 [6]): 0 (−18) %; % Disappearance (CYP2C19 [7]): 18%; Measured Conc. (CYP2C19 [7]): 0.537 µM; fraction unbound at 4 h (in vitro): 0.06 to 0.09; Percentage binding, Dog plasma, 1 μM (Binding in dog plasma): 95.1 ± 1.38%; Percentage binding, Dog plasma, 10 μM (Binding in dog plasma): 95.0 ± 0.32%; Percentage binding, Human plasma, 1 μM (Binding in human plasma): 95.1 ± 1.03%; Unbound (%), Human Plasma (Binding in human plasma): 4.91 ± 1.03%; Percentage binding, Human plasma, 10 μM (Binding in human plasma): 95.4 ± 1.17%
Cc1ccnc(Nc2nc(-c3ccc(-c4ccccn4)s3)cs2)c1 [IND81, (4-Methyl-pyridin-2-yl)-[4-(5-pyridin-2-yl-thiophen-2-yl)-thiazol-2-yl]-amine] | not substrates | ring hydroxylation | 23.2 ± 2.68% | 84% | 0.143 µM | 0% | 0.899 µM | 66% | 0.226 µM | 0% | 0% | 0.664 µM | Unlikely (unlikely for values <5) | 64% | 0.238 µM | 1.8% | Likely (likely for values >10) | 51% | 0.324 µM | 15% | involvement of CYP3A4 in metabolism (CYP3A4 [8]): most likely to be involved; % Disappearance [4, 10]: 0%; CYP Involvement (CYP2C19 [6]): Possible (possible for values 5-10); Δ % Disappearance (CYP2C19 [6]): 8.5%; % Disappearance (CYP2C19 [7]): 57%; Measured Conc. (CYP2C19 [7]): 0.283 µM; fraction unbound at 4 h (in vitro): 0.06 to 0.09; Percentage binding, Dog plasma, 1 μM (Binding in dog plasma): 94.4 ± 1.88%; Percentage binding, Dog plasma, 10 μM (Binding in dog plasma): 94.7 ± 1.03%; Percentage binding, Human plasma, 1 μM (Binding in human plasma): 94.2 ± 3.21%; Unbound (%), Human Plasma (Binding in human plasma): 5.78 ± 3.21%; Percentage binding, Human plasma, 10 μM (Binding in human plasma): 95.2 ± 0.86%
